In patent US6828317B2, “Antimicrobial thiadiazinone derivatives and their application for treatment of bacterial infections” (Pharmacia & Upjohn Company, priority 2002, dated 2004):
≈ marks a conversion by molar mass, not a printed value.

Tests used:
H. influenzae 30063 = assay: MIC by agar dilution, H. influenzae 30063; format: cell-based; details: Haemophilus influenzae, Mueller Hinton agar, overnight at 35° C.
Text: (§1) The in vitro activity of compounds of the subject invention may be assessed by standard testing procedures such as the determination of minimum inhibitory concentration (MIC) by agar dilution as described in “Approved Standard. Methods for Dilution Antimicrobial Susceptibility Tests for Bacteria that Grow Aerobically,” 3rd ed., published 1993 by the National Committee for Clinical Laboratory standards, Villanova, Pa., USA. The in vitro MICs of test compounds may be determined by a standard agar dilution method. A stock drug solution of each analog is prepared in a preferred solvent, usually DMSO:H2O (1:3). Serial 2-fold dilutions of each sample are made using 1.0 ml aliquots of sterile distilled water. To each 1.0 ml aliquot of drug is added 9 ml of molten Mueller Hinton agar medium. The drug-supplemented agar is mixed, poured into 15×100 mm petri dishes, and allowed to solidify and dry prior to inoculation. Vials of each of the test microorganisms are maintained frozen in the vapor phase of a liquid nitrogen freezer. Test cultures are grown overnight at 35° C. on the medium appropriate for the microorganism. Colonies are harvested with a sterile swab, and cell suspensions are prepared in Trypticase Soy broth (TSB) to equal the turbidity of a 0.5 McFarland standard. A 1:20 dilution of each suspension is made in TSB. The plates containing the drug supplemented agar are inoculated with a 0.001 ml drop of the cell suspension using a Steers replicator, yielding approximately 10^4 to 10^5 cells per spot. The plates are incubated overnight at 35° C. Following incubation the Minimum Inhibitory Concentration (MIC μg/ml), the lowest concentration of drug that inhibits visible growth of the microorganism, is read and recorded.

S. pneumoniae UC9912 = assay: MIC by agar dilution, S. pneumoniae UC9912; format: cell-based; details: Streptococcus pneumoniae, Mueller Hinton agar, overnight at 35° C.
Text: as §1

S. aureus UC9213 = assay: MIC by agar dilution, S. aureus UC9213; format: cell-based; details: Staphylococcus aureus, Mueller Hinton agar, overnight at 35° C.
Text: as §1

Row | SMILES | melting point | MIC (H. influenzae 30063) | MIC (S. pneumoniae UC9912) | MIC (S. aureus UC9213)
1 | O=C1CSC(c2ccc(N3C[C@H](CNC(=O)C4CC4)OC3=O)cc2F)=NN1 [Example 16, Cyclopropanecarboxylic acid {3-[3-fluoro-4-(5-oxo-5,6-dihydro-4H-[1,3,4]thiadiazin-2-yl)-phenyl]-2-oxo-oxazolidin-5(S)-ylmethyl}-amide] | 239 to 240 °C | 2 µg/mL (≈ 5.1 µM) | 0.125 µg/mL (≈ 0.319 µM) | 2 µg/mL (≈ 5.1 µM)
2 | O=C(/C=C/c1ccc(/C=N/O)cc1)NC[C@H]1CN(c2ccc(C3=NNC(=O)CS3)c(F)c2)C(=O)O1 [Example 23, N-{3-[3-Fluoro-4-(5-oxo-5,6-dihydro-4H-[1,3,4]thiadiazin-2-yl)-phenyl]-2-oxo-oxazolidin-5(S)-ylmethyl}-3-[4-(hydroxyimino-methyl)-phenyl]-acrylamide] | 144 to 145 °C | 8 µg/mL (≈ 16.1 µM) | 0.25 µg/mL (≈ 0.503 µM) | 1 µg/mL (≈ 2.01 µM)

The next lines start with the values.

Row | melting point | MIC (H. influenzae 30063) | MIC (S. pneumoniae UC9912) | MIC (S. aureus UC9213) | SMILES
3 | 200 to 202 °C | 4 µg/mL (≈ 10.5 µM) | 0.25 µg/mL (≈ 0.657 µM) | 1 µg/mL (≈ 2.63 µM) | CC(=O)NC[C@H]1CN(c2ccc(C3=NNC(=O)[C@H](C)S3)c(F)c2)C(=O)O1 [Example 2, N-{3-[3-Fluoro-4-(6(S)-methyl-5-oxo-5,6-dihydro-4H-[1,3,4]thiadiazin-2-yl)-phenyl]-2-oxo-oxazolidin-5(S)-ylmethyl}-acetamide]
4 | 214 to 215 °C | 32 µg/mL (≈ 78.7 µM) | 0.5 µg/mL (≈ 1.23 µM) | 2 µg/mL (≈ 4.92 µM) | CC(=O)NC[C@H]1CN(c2ccc(C3=NNC(=O)C4(CCC4)S3)c(F)c2)C(=O)O1 [Example 8, N-{3-[3-Fluoro-4-(9-oxo-5-thia-7,8-diazaspiro[3.5]non-6-en-6-yl)-phenyl]-2-oxo-oxazolidin-5(S)-ylmethyl}-acetamide]
5 | 184 to 187 °C | 16 µg/mL (≈ 32.8 µM) | 1 µg/mL (≈ 2.05 µM) | 4 µg/mL (≈ 8.19 µM) | O=C(CC(=O)c1ccc(F)cc1)NC[C@H]1CN(c2ccc(C3=NNC(=O)CS3)c(F)c2)C(=O)O1 [Example 22, N-{3-[3-Fluoro-4-(5-oxo-5,6-dihydro-4H-[1,3,4]thiadiazin-2-yl)-phenyl]-2-oxo-oxazolidin-5(S)-ylmethyl}-3-(4-fluorophenyl)-3-oxo-propionamide]
